# Data published in patent US20080280866A1, “Method of Treating or Sepsis” (priority 2004, published 2008).
# Entries after “also recorded” stand apart in the source; their conditions may differ. Like-named read-outs stand apart in the source and are kept apart here.
# Legend:
# SOC channels = settings: HL-60 cells, values determined by Harper; cited from earlier work
# [1] = test system: voltage-dependent L-type calcium channels; settings: GH4C1 cells, values determined by Harper; cited from earlier work
# p38 MAP kinase = assay: Rat T/HS, post-shock treatment: Western blot of PMN phosphorylated p38 MAP kinase; format: in vivo; settings: IP post-treatment; PMN lysates 3 hours after T/HS; FIG. 4
# Protocol: The phosphorylation of p38-mitogen associated protein kinase [“p38 MAP kinase”] in the presence of inflammatory stimuli is a key cellular mechanism involved in irreversible neutrophil activation and post-shock organ injury. Male rats underwent T/HS with or without 4-[4-(4-chloro-phenyl)-thiazol-2-ylamino]-phenol or N-propargyl-nitrendipine administered IP in post-treatment as above. At the end of 3 hours post reperfusion, animals were sacrificed by exsanguination. PMN were isolated. Whole cell lysates were probed using specific antibodies for phosphorylated p38 MAP kinase. SOC inhibition via either strategy led to diminished activation. Lysates of rat PMN were sampled 3 hours after T/HS. Animals were treated with 4-[4-(4-chloro-phenyl)-thiazol-2-ylamino]-phenol or vehicle (DMSO) at the time of resuscitation. Positive controls (+) were rat PMN activated in vitro with fMLP. […] Thus SIP/SOC inhibition diminishes PMN p38 MAP kinase activation by T/HS.
# [2] = test system: rat traumatic, hemorrhagic shock model; assay: Rat traumatic, hemorrhagic shock model, treatment prior to shock
# PMN = assay: Rat T/HS, post-shock treatment: PMN CD11b and respiratory burst by flow cytometry; format: in vivo; settings: IP post-treatment, whole blood 3 hrs post reperfusion; for PMN CD11b expression: FIG. 2; for PMN priming for respiratory burst initiated by PMA: FIG. 3
# Protocol: Male rats underwent T/HS with or without 4-[4-(4-chloro-phenyl)-thiazol-2-ylamino]-phenol or N-propargyl-nitrendipine administered IP in post-treatment as above. Small (200 μL) whole blood samples removed prior to shock and 3 hrs post reperfusion were assayed for PMN CD11b (FIG. 2) and respiratory burst (FIG. 3) by flow cytometry. […] Left histogram, preshock; Right histogram, 3 h post-shock; Center (dark) histogram, 3 h post-shock PMN from animal treated with the indicated drug during resuscitation. Representative flow histograms, n=3-4 per condition. P<0.01, ANOVA/Tukey's test for all inter-group comparisons. […] Representative flow histograms are arranged as in FIG. 2, n=3-4 per condition. P<0.01 by ANOVA/Tukey's test for all inter-group comparisons.
# rat T/HS = assay: Rat T/HS, post-shock treatment: lung MPO and Evans Blue dye leak; format: in vivo; settings: IP after return of 10% of shed blood, estimated plasma level 30 μM; 3 hours after reperfusion; FIG. 1
# Protocol: Male rats underwent standard T/HS. 4-[4-(4-Chloro-phenyl)-thiazol-2-ylamino]-phenol or N-propargyl-nitrendipine (estimated plasma level 30 μM for each) or vehicle were administered IP after the return of 10% of total shed blood to the animal. Different groups of animals (n=6/group) were sacrificed 3 hours after reperfusion for bronchoalveolar lavage and Evan's Blue dye leak assay, or to harvest the lungs for MPO assays (FIG. 1).
# N=6 animals per condition, *p<0.01 for inter-group comparisons.
# [3] = format: in vivo
# Protocol: In all the above experiments, rats undergoing T/HS were treated with SKI-2 or N-propargyl-nitrendipine given as an IP bolus just after the BP nadir. At this point, MAP has risen only from 30-40 to approximately 50 mmHg.
# PMN SOC = settings: cited from earlier work
# [4] = IP bolus just after the BP nadir
smiles,measurement,setting,value
COC(=O)C1=C(C)N(C)C(C)=C(C(=O)OC)C1c1cccc([N+](=O)[O-])c1 [Compound 30],IC50,SOC channels,2800 ± 30 nM
same,IC50,[1],2000 nM
CCOC(=O)C1=C(C)N(C)C(C)=C(C(=O)OC)C1c1cccc([N+](=O)[O-])c1 (stereo not shown) [Compound 32],IC50,SOC channels,2600 ± 1100 nM
same,IC50,[1],1300 ± 300 nM
CCOC(=O)C1=C(C)N(CC)C(C)=C(C(=O)OC)C1c1cccc([N+](=O)[O-])c1 (stereo not shown) [Compound 33],IC50,SOC channels,6000 nM
same,IC50,[1],2300 ± 400 nM
C=CCN1C(C)=C(C(=O)OC)C(c2cccc([N+](=O)[O-])c2)C(C(=O)OCC)=C1C (stereo not shown) [Compound 34],IC50,SOC channels,6800 ± 1800 nM
same,IC50,[1],3800 ± 1800 nM
"C#CCN1C(C)=C(C(=O)OC)C(c2cccc([N+](=O)[O-])c2)C(C(=O)OCC)=C1C (stereo not shown) [Compound 35, N-propargyl-nitrendipine]",PMN p38 MAP kinase phosphorylation/activation,p38 MAP kinase,Attenuation of p38 MAP Kinase phosphorylation and activation was also seen
same,Attenuation of lung injury,"[2]; pre-treatment IP, target concentration 30 μm",Identical attenuation of lung injury as in Example 1
same,Lung PMN infiltration by myeloperoxidase (MPO) assay,"[2]; pre-treatment IP, data not shown",diminished lung PMN infiltration
same,IC50,SOC channels,1700 ± 1300 nM
same,PMN CD11b expression,PMN,decreased CD11b expression almost to the level seen prior to shock
same,PMN priming for respiratory burst initiated by PMA,PMN,decreased PMN priming for respiratory burst initiated by PMA (phorbol 12-myristate 13-acetate) almost to the levels seen prior to shock
same,IC50,[1],2100 ± 200 nM
same,Capillary-alveolar leakage (Evans Blue dye leak),rat T/HS,prevented PMN accumulation and subsequent capillary-alveolar leakage; also recorded: yielded the same effects
same,Pulmonary PMN infiltration/accumulation (MPO assay),rat T/HS,prevented PMN accumulation; also recorded: yielded the same effects
same,Episodes of hypotension,[3]; [4],No episodes of hypotension were seen
same,Survival of the acute shock phase,[3]; [4],all animals survived the acute shock phase
"Oc1ccc(Nc2nc(-c3ccc(Cl)cc3)cs2)cc1 [SKI-2, 4-[4-(4-Chloro-phenyl)-thiazol-2-ylamino]-phenol]",PMN p38 MAP kinase phosphorylation/activation,p38 MAP kinase,attenuation of MAPK activation
same,CD11b (MFI),"[2]; PMN activation by flow cytometry, IP at laparotomy prior to shock, estimated plasma level 30 μM, 3 hours after resuscitation",225 ± 18 MFI
same,Evans Blue (%),"[2]; lung injury as % Evans Blue dye leak, IP prior to shock, estimated plasma level 30 μM, 3 hours after resuscitation",3.8 ± 1.7 %
same,Hemodynamic effects,[2]; pre-treatment IP,No unexpected hemodynamic effects were noted
same,Phlebotomy volumes,"[2]; treatment vs placebo groups, pre-treatment IP",identical in the treatment and placebo groups
same,PMN CD11b expression,PMN,decreased CD11b expression almost to the level seen prior to shock
same,PMN priming for respiratory burst initiated by PMA,PMN,decreased PMN priming for respiratory burst initiated by PMA (phorbol 12-myristate 13-acetate) almost to the levels seen prior to shock
same,Capillary-alveolar leakage (Evans Blue dye leak),rat T/HS,prevented PMN accumulation and subsequent capillary-alveolar leakage; also recorded: inhibits PMN mediated lung injury
same,Pulmonary PMN infiltration/accumulation (MPO assay),rat T/HS,prevented PMN accumulation; also recorded: inhibits PMN mediated lung injury
same,Episodes of hypotension,[3]; [4],No episodes of hypotension were seen
same,Survival of the acute shock phase,"[3]; rat, in vivo, ip",all animals survived the acute shock phase
"[Gd+3] [gadolinium (Gd3+), gadolinium]",Concentration inhibiting PMN SOC,PMN SOC,low-mid nanomolar concentrations
